Measured values reported in PubChem BioAssay (NCI).
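These data come from cells grown in 96-well plates and exposed to compound for 48 hours at five concentrations. TGI is the concentration that stops growth completely.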

Key:
Experiment in all cases: DTP human tumour cell line panel, 48 h
786-0 renal = test system: 786-0 renal
A498 renal = test system: A498 renal
A549 NSCLC = test system: A549 NSCLC
ACHN renal = test system: ACHN renal
CAKI-1 renal = test system: CAKI-1 renal
CCRF-CEM leukemia = test system: CCRF-CEM leukemia
COLO 205 colon = test system: COLO 205 colon
DLD-1 colon = test system: DLD-1 colon
DMS 114 small cell lung = test system: DMS 114 small cell lung
DMS 273 small cell lung = test system: DMS 273 small cell lung
EKVX NSCLC = test system: EKVX NSCLC
HCC-2998 colon = test system: HCC-2998 colon
HCT-116 colon = test system: HCT-116 colon
HCT-15 colon = test system: HCT-15 colon
HL-60(TB) leukemia = test system: HL-60(TB) leukemia
HOP-18 NSCLC = test system: HOP-18 NSCLC
HOP-62 NSCLC = test system: HOP-62 NSCLC
HOP-92 NSCLC = test system: HOP-92 NSCLC
HT29 colon = test system: HT29 colon
IGROV1 ovarian = test system: IGROV1 ovarian
K-562 leukemia = test system: K-562 leukemia
KM12 colon = test system: KM12 colon
KM20L2 colon = test system: KM20L2 colon
LOX IMVI melanoma = test system: LOX IMVI melanoma
LXFL 529 NSCLC = test system: LXFL 529 NSCLC
M14 melanoma = test system: M14 melanoma
M19-MEL melanoma = test system: M19-MEL melanoma
MALME-3M melanoma = test system: MALME-3M melanoma
MOLT-4 leukemia = test system: MOLT-4 leukemia
NCI-H23 lung = test system: NCI-H23 lung
NCI-H460 lung = test system: NCI-H460 lung
NCI-H522 lung = test system: NCI-H522 lung
OVCAR-3 ovarian = test system: OVCAR-3 ovarian
OVCAR-4 ovarian = test system: OVCAR-4 ovarian
OVCAR-5 ovarian = test system: OVCAR-5 ovarian
OVCAR-8 ovarian = test system: OVCAR-8 ovarian
RPMI-8226 leukemia = test system: RPMI-8226 leukemia
RXF 393 renal = test system: RXF 393 renal
SF-268 CNS = test system: SF-268 CNS
SF-295 CNS = test system: SF-295 CNS
SF-539 CNS = test system: SF-539 CNS
SK-MEL-2 melanoma = test system: SK-MEL-2 melanoma
SK-MEL-28 melanoma = test system: SK-MEL-28 melanoma
SK-MEL-5 melanoma = test system: SK-MEL-5 melanoma
SK-OV-3 ovarian = test system: SK-OV-3 ovarian
SN12C renal = test system: SN12C renal
SNB-19 CNS = test system: SNB-19 CNS
SNB-75 CNS = test system: SNB-75 CNS
SNB-78 CNS = test system: SNB-78 CNS
SR leukemia = test system: SR leukemia
SW-620 colon = test system: SW-620 colon
TK-10 renal = test system: TK-10 renal
U251 CNS = test system: U251 CNS
UACC-257 melanoma = test system: UACC-257 melanoma
UACC-62 melanoma = test system: UACC-62 melanoma
UO-31 renal = test system: UO-31 renal
XF 498 CNS = test system: XF 498 CNS

CCOC(=O)NC(=O)c1cn(-c2ccc(CCOC(=O)NCCCCCCNC(=O)OCCc3ccc(-n4c(=O)[nH]cc(C(=O)NC(=O)OCC)c4=O)cc3)cc2)c(=O)[nH]c1=O
TGI (786-0 renal): > 100 µM
TGI (A498 renal): > 100 µM
TGI (A549 NSCLC): > 100 µM
TGI (ACHN renal): > 92.7 µM
TGI (CAKI-1 renal): > 100 µM
TGI (CCRF-CEM leukemia): > 100 µM
TGI (COLO 205 colon): > 100 µM
TGI (DLD-1 colon): > 100 µM
TGI (DMS 114 small cell lung): > 100 µM
TGI (DMS 273 small cell lung): > 100 µM
TGI (EKVX NSCLC): > 100 µM
TGI (HCC-2998 colon): > 100 µM
TGI (HCT-116 colon): > 100 µM
TGI (HCT-15 colon): > 100 µM
TGI (HL-60(TB) leukemia): > 100 µM
TGI (HOP-18 NSCLC): > 100 µM
TGI (HOP-62 NSCLC): 72 µM
TGI (HOP-92 NSCLC): > 100 µM
TGI (HT29 colon): > 100 µM
TGI (IGROV1 ovarian): > 100 µM
TGI (K-562 leukemia): > 100 µM
TGI (KM12 colon): > 100 µM
TGI (KM20L2 colon): > 100 µM
TGI (LOX IMVI melanoma): > 100 µM
TGI (LXFL 529 NSCLC): 69.7 µM
TGI (M14 melanoma): > 100 µM
TGI (M19-MEL melanoma): > 94.8 µM
TGI (MALME-3M melanoma): > 91.9 µM
TGI (MOLT-4 leukemia): > 100 µM
TGI (NCI-H23 lung): > 100 µM
TGI (NCI-H460 lung): > 76.8 µM
TGI (NCI-H522 lung): 68.6 µM
TGI (OVCAR-3 ovarian): > 100 µM
TGI (OVCAR-4 ovarian): > 100 µM
TGI (OVCAR-5 ovarian): > 100 µM
TGI (OVCAR-8 ovarian): > 100 µM
TGI (RPMI-8226 leukemia): > 100 µM
TGI (RXF 393 renal): > 100 µM
TGI (SF-268 CNS): > 84.8 µM
TGI (SF-295 CNS): > 82.4 µM
TGI (SF-539 CNS): 54.5 µM
TGI (SK-MEL-2 melanoma): > 100 µM
TGI (SK-MEL-28 melanoma): > 100 µM
TGI (SK-MEL-5 melanoma): > 100 µM
TGI (SK-OV-3 ovarian): > 89.8 µM
TGI (SN12C renal): > 100 µM
TGI (SNB-19 CNS): 51.4 µM
TGI (SNB-75 CNS): 67.3 µM
TGI (SNB-78 CNS): 98.8 µM
TGI (SR leukemia): > 100 µM
TGI (SW-620 colon): > 100 µM
TGI (TK-10 renal): 97.5 µM
TGI (U251 CNS): > 74.9 µM
TGI (UACC-257 melanoma): > 100 µM
TGI (UACC-62 melanoma): 60.6 µM
TGI (UO-31 renal): > 93.9 µM
TGI (XF 498 CNS): > 48.9 µM

CC(C)(Oc1ccc(C(=O)c2ccc(Cl)cc2)cc1Cl)C(=O)Nc1c(Cl)cccc1Cl
TGI (786-0 renal): > 100 µM
TGI (A498 renal): > 100 µM
TGI (A549 NSCLC): > 100 µM
TGI (CAKI-1 renal): > 100 µM
TGI (CCRF-CEM leukemia): > 100 µM
TGI (DLD-1 colon): > 100 µM
TGI (DMS 114 small cell lung): > 100 µM
TGI (DMS 273 small cell lung): > 100 µM
TGI (EKVX NSCLC): > 100 µM
TGI (HCT-116 colon): > 100 µM
TGI (HCT-15 colon): > 100 µM
TGI (HL-60(TB) leukemia): > 100 µM
TGI (HOP-18 NSCLC): > 100 µM
TGI (HOP-62 NSCLC): > 100 µM
TGI (HOP-92 NSCLC): > 100 µM
TGI (HT29 colon): > 100 µM
TGI (IGROV1 ovarian): > 100 µM
TGI (K-562 leukemia): > 100 µM
TGI (KM12 colon): > 100 µM
TGI (KM20L2 colon): > 100 µM
TGI (LOX IMVI melanoma): > 100 µM
TGI (LXFL 529 NSCLC): > 100 µM
TGI (M14 melanoma): > 100 µM
TGI (M19-MEL melanoma): > 100 µM
TGI (MALME-3M melanoma): > 100 µM
TGI (MOLT-4 leukemia): > 100 µM
TGI (NCI-H23 lung): > 100 µM
TGI (NCI-H460 lung): > 100 µM
TGI (NCI-H522 lung): > 100 µM
TGI (OVCAR-3 ovarian): > 100 µM
TGI (OVCAR-5 ovarian): > 100 µM
TGI (OVCAR-8 ovarian): > 100 µM
TGI (RPMI-8226 leukemia): > 100 µM
TGI (RXF 393 renal): > 100 µM
TGI (SF-268 CNS): > 100 µM
TGI (SF-295 CNS): > 100 µM
TGI (SF-539 CNS): > 100 µM
TGI (SK-MEL-2 melanoma): > 100 µM
TGI (SK-MEL-28 melanoma): > 100 µM
TGI (SK-MEL-5 melanoma): > 100 µM
TGI (SK-OV-3 ovarian): > 100 µM
TGI (SNB-19 CNS): > 100 µM
TGI (SNB-78 CNS): > 100 µM
TGI (SR leukemia): > 100 µM
TGI (SW-620 colon): > 100 µM
TGI (TK-10 renal): > 100 µM
TGI (U251 CNS): > 100 µM
TGI (UACC-257 melanoma): > 100 µM
TGI (UACC-62 melanoma): > 100 µM
TGI (UO-31 renal): > 100 µM
TGI (XF 498 CNS): > 100 µM
